Laboratory results taken from PMC8820820, “Feasibility and safety of targeting mitochondria for cancer therapy – preclinical characterization of gamitrinib, a first-in-class, mitochondriaL-targeted small molecule Hsp90 inhibitor” (Cancer Biology & Therapy, 2022).
pIC50: −log10 of the molar value.

Tests used:
CYP2B6 = molecular target: T1, CYP2B6 (Homo sapiens, UniProt P20813); details: microsomes
T1 sequence (P20813 1-491): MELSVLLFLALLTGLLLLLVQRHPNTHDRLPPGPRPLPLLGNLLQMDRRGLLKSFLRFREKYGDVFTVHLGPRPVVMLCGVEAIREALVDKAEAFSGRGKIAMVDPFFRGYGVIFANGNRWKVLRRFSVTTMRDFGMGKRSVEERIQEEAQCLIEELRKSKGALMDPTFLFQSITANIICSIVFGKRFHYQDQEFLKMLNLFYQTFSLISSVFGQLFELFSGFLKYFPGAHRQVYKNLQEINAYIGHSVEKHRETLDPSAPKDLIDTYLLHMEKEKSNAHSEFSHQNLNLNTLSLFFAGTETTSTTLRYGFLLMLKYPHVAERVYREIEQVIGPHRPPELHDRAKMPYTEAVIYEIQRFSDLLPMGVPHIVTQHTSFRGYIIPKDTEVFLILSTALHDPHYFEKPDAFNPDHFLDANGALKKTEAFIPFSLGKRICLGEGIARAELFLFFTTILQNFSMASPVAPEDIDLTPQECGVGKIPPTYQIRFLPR
Method: (§1) CYP inhibition in liver microsomes. […] Samples were analyzed for metabolite formation by LC-MS/MS. The results were expressed using the peak area ratio of analyte to internal standard, based on the calibration curves.
(§2) Where Range=fitted uninhibited value, s=slope factor, x=inhibitor concentration, y=% control activity.

KCNQ1/mink = KCNQ1/mink (Homo sapiens, UniProt P51787); assay: Ion channel screening; type: cell-based; details: 10 µM
From the text: (§3) Ion channel screening. […] The parameters measured were the maximum inward current evoked on stepping to -20 mV from the 1st and 26th pulse. Human Kv4.3/KChIP2 currents were evoked from a holding potential of -80 mV by a series of four 500 msec pulses to 0 mV using a 1000 msec interval between pulses. The parameter measured was the amplitude of the outward current 50 msec after the onset of the 4th voltage step to 0 mV. […] Human Kv1.5 currents were evoked by a single pulse from a holding potential of -80 mV to a potential of 0 mV for 4 sec before returning to -80 mV. The parameters measured were the maximum amplitude of outward currents evoked at the beginning of the voltage pulse and at the end of the voltage step from -80 mV to 0 mV. Human KCNQ1/minK currents were evoked by a single pulse delivered from a holding potential of -80 mV to +60 mV for 4 sec before returning to -80 mV. The parameter measured was the maximum outward current evoked on stepping to +60 mV from the holding potential of -80 mV. hERG currents were evoked by a three-pulse protocol where voltage was first stepped to +40 mV for two sec from a holding potential of –80 mV to inactivate hERG channels. […] The parameter measured was the maximum inward current evoked upon stepping to -110 mV from the holding potential of -30 mV. […]

CYP2C8 = molecular target: T2, CYP2C8 (Homo sapiens, UniProt P10632); details: microsomes
T2 sequence (P10632 1-490): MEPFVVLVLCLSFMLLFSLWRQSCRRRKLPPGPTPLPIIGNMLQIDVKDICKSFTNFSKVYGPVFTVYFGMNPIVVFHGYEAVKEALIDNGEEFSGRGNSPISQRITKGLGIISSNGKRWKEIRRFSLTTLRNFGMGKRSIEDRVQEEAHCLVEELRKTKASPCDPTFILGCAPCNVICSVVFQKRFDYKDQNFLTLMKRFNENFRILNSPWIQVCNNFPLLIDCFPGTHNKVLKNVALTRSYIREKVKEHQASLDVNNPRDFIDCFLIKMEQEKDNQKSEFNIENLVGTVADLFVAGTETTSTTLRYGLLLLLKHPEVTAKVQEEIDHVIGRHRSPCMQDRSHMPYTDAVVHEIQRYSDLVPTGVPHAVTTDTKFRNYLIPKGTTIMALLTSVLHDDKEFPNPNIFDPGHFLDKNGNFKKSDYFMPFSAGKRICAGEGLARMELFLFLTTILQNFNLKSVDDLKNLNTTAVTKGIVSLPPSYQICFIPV
Method: as §1, §2

HCN4 = molecular target: T3, HCN4 (Homo sapiens, UniProt Q9Y3Q4); assay: Ion channel screening; type: cell-based; details: 10 µM
T3 sequence (Q9Y3Q4 1-1203): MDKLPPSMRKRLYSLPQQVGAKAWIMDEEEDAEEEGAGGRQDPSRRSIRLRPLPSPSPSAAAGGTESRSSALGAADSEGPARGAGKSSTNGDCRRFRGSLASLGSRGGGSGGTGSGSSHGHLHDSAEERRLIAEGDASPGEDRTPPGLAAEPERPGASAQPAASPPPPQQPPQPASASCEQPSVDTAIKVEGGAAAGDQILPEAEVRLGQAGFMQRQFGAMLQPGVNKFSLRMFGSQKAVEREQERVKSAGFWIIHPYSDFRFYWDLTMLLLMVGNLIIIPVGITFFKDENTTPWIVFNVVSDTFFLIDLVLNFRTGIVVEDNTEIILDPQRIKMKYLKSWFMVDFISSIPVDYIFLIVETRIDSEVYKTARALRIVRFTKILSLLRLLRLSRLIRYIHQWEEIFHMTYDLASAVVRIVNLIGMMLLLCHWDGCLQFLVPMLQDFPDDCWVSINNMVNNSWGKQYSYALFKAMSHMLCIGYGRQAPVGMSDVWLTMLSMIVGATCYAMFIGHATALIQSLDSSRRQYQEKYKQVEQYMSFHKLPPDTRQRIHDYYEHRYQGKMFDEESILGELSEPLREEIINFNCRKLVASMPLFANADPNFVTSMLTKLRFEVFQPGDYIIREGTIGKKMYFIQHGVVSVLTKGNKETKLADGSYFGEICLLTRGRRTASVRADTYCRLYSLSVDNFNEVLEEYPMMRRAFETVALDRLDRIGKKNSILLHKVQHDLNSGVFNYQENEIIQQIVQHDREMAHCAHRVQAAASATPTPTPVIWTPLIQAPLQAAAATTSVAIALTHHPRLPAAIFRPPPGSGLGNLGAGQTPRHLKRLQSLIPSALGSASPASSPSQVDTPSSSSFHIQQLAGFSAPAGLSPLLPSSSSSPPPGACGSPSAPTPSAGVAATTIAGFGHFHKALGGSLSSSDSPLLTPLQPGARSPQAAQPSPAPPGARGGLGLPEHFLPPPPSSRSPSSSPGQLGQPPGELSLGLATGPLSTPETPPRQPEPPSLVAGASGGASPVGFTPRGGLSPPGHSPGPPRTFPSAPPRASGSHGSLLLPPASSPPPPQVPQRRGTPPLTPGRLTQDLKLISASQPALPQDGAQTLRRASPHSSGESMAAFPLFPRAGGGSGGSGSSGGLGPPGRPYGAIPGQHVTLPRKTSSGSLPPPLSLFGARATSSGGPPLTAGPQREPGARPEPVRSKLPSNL
From the text: as §3

tumor cell = test system: tumor cell; parameters: method as in PMID 19229106, PMID 29348817; details: in culture; read-out: IC50 of tumor cell killing; cited from earlier work

KCNQ1/mink, sequence (P51787 whole entry): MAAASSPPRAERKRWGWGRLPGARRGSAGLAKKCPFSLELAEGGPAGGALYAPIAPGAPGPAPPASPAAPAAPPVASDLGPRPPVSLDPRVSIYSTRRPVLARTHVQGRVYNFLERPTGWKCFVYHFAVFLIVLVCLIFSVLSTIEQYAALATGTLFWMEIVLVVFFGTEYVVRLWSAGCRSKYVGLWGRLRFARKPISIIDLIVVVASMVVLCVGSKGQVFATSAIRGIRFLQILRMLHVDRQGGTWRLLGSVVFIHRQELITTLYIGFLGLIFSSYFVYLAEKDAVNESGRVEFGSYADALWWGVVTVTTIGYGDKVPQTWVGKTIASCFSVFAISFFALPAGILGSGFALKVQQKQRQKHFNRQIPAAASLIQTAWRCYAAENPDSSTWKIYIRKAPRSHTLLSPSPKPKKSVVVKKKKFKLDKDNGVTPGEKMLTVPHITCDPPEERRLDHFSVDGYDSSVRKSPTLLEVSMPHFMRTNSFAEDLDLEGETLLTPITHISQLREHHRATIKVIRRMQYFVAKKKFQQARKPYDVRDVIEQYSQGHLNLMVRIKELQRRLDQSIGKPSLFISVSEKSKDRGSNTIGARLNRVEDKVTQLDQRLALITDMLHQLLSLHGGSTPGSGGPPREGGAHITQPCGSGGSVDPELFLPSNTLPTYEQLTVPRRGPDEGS

COC1C=CC=C(C)C(=O)NC2=CC(=O)C(NCCCCCC[P+](c3ccccc3)(c3ccccc3)c3ccccc3)=C(CC(C)CC(OC)C(O)C(C)C=C(C)C1OC(N)=O)C2=O.F[P-](F)(F)(F)(F)F (centres unmarked) [Gamitrinib]
pIC50 (CYP2B6): 4.80 | inhibition of KCNQ1/mink currents (KCNQ1/mink): 22.5 ± 1.1% | pIC50 (CYP2C8): 5.10 | inhibition of HCN4 currents (HCN4): −0.2 ± 3.7% | pIC50 (tumor cell): 5.40 to 6.00
